The values that follow come from PMC4472782, “Antibacterial Characterization of Novel Synthetic Thiazole Compounds against Methicillin-Resistant Staphylococcus pseudintermedius” (PLoS ONE, 2015).

A short description of data set [1]: Microsomal stability analysis in dog liver microsomes. In kind it is in vitro ADME. To be noted: pH 7.4, dog liver microsomes. On the procedure: The reaction contained microsomal protein in 100 mM potassium phosphate, 2 mM NADPH, 3 mM MgCl2, pH 7.4. A control was run for each test agent omitting NADPH to detect NADPH-free degradation. At 0, 10, 20, 40, and 60 minutes, an aliquot was removed from each experimental and control reaction and mixed with an equal volume of ice-cold Stop Solution (methanol containing haloperidol, diclofenac, or other internal standard). Stopped reactions were incubated at least 10 minutes at -20°C, and an additional volume of water was subsequently added. The samples were centrifuged to remove precipitated protein, and the supernatants were analyzed by LC/MS/MS to quantitate the remaining parent. Data were converted to % remaining by dividing by the time zero concentration value. Data were then fitted to a first-order decay model to determine half-life. Intrinsic clearance was calculated from the half-life and the protein concentrations, as has been described elsewhere.
For orientation: Liver microsomes are vesicles of endoplasmic reticulum, rich in cytochrome P450 enzymes.

The subject of data set [2] is murine macrophage cell line (J774.A1). Put plainly: In vitro cytotoxicity analysis (MTS assay). In kind it is cell-based. To be noted: 10 μg/mL, J774.A1, two hours. How it is done:
Compounds were assayed at concentrations of 5 μg/mL, 10 μg/mL, 20 μg/mL, and 40 μg/mL against a murine macrophage cell line (J774.A1) (ATCC TIB-67, American Type Culture Collection (ATCC), Manassas, VA, USA) to determine the potential toxic effect in vitro. Cells were cultured in Dulbeco’s modified Eagle’s medium (Sigma-Aldrich, St. Louis, MO, USA) with 10% fetal bovine serum (USA Scientific, Inc.) at 37°C with 5% CO2. Controls received DMSO alone at a concentration equal to that in drug-treated cell samples. The cells were incubated with the compounds in a 96-well plate at 37°C and 5.0% CO2 for two hours prior to addition of the assay reagent MTS 3-(4,5-dimethylthiazol-2-yl)-5-(3-carboxymethoxyphenyl)-2-(4-sulfophenyl)-2H-tetrazolium) (Promega, Madison, WI, USA). Absorbance readings were taken using a kinetic ELISA microplate reader (Molecular Devices, Sunnyvale, CA, USA). The quantity of viable cells after treatment with each compound was expressed as a percentage of the control, DMSO.
All statistical analyses were performed with GraphPad Prism 6.0 (GraphPad Software, La Jolla, CA). Data generated from cytotoxicity analysis of the thiazole compounds against J774.A1 cells and the 260 and 280 nm cell leakage analysis were analyzed using one-way ANOVA, with post hoc Tukey's multiple comparisons test (P < 0.05).

Each structure is given as a SMILES string. Read-outs that look alike come from different tables or passages of the source.

As to `CCCCC#Cc1ccc(-c2nc(C)c(/C(C)=N/NC(=N)N)s2)cc1` [Compound 3], the microsomal CLint in data set [1] (NADPH omitted, read-out: NADPH-free CLint) stood at 6.6 µL/min/mg; in data set [1] (with NADPH, duplicate, read-out: NADPH-dependent CLint), 18.7 µL/min/mg. Besides, the half-life in data set [1] (NADPH omitted, read-out: NADPH-free T1/2) came out at 5.85 h; in data set [1] (with NADPH, duplicate, read-out: NADPH-dependent T1/2) it was 2.05 h. For the same molecule, in data set [2], the “toxicity to murine macrophage cells (MTS assay)” value was “not toxic”.
